# Positions of bridges follow the written chain, without caps; N, C: chain ends. Residues, ends and D or L forms follow the SMILES beside them. Chains are numbered I, II in the order given.
# How the values were obtained:
# Ship2-Sam = target: T1, Ship2-Sam (Homo sapiens, UniProt O15357); experiment: SPR binding of peptides to immobilized Ship2-Sam; details: for SPR binding to Ship2-Sam (RUmax): RUmax at 30 and 100 µM peptide, normalized for molecular weight
# T1 construct: Its C-terminal sterile alpha motif domain (Ship2-Sam); made in house; host or cells: E. coli
# T1 sequence (O15357 1196-1258 limits assumed): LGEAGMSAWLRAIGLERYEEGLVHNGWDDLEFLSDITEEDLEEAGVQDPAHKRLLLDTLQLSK
# Method: In order to investigate the interaction with Ship2-Sam, all peptides were analysed by SPR experiments (Figs 2, 3 and S5).
# SPR experiments were conducted as previously reported.
# SPR assays were conducted with the following parameters: (i) flow: 20 μL/min, (ii) contact time: 4.5 min; (iii) running buffer: HBS (HEPES (10 mM), NaCl (150 mM), EDTA (3 mM), pH 7.4).
# Reference channel signals were subtracted as blanks and the software BIAevaluation (version 4.1, GE Healthcare) was employed to estimate kinetic and thermodynamic parameters of the complexes.
# EphA2 SAM (Homo sapiens) = EphA2 SAM (Homo sapiens) (UniProt P29317); experiment: ITC; details: cited from earlier work
# Chain of EphA2 SAM (Homo sapiens) (P29317 901-971): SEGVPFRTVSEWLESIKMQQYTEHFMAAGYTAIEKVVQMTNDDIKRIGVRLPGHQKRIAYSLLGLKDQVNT
Compound,SPR binding to Ship2-Sam (RUmax) (Ship2-Sam),"SPR sensorgrams, saturation (Ship2-Sam; wider concentration range (Fig. S5b))",Kd (EphA2 SAM (Homo sapiens))
CC[C@H](C)[C@H](NC(=O)[C@H](CCCNC(=N)N)NC(=O)[C@H](CCCCN)NC(C)=O)C(=O)NCC(=O)N[C@H](C(=O)N[C@@H](CCCNC(=N)N)C(=O)N[C@@H](CC(C)C)C(=O)N1CCC[C@H]1C(=O)NCC(=O)N[C@@H](Cc1c[nH]cn1)C(=O)N[C@@H](CCC(N)=O)C(=O)N[C@@H](CCCCN)C(=O)N[C@@H](CCCNC(=N)N)C(=O)N[C@@H](CSSC[C@H](NC(=O)[C@H](CO)NC(C)=O)C(=O)N[C@@H](CCCCN)C(=O)N[C@@H](CCSC)C(=O)N[C@@H](CCC(N)=O)C(=O)N[C@@H](CCC(N)=O)C(N)=O)C(=O)N[C@@H](C)C(=O)N[C@@H](Cc1ccc(O)cc1)C(=O)N[C@@H](CO)C(=O)N[C@@H](CC(C)C)C(=O)N[C@@H](CC(C)C)C(=O)NCC(=O)N[C@@H](CC(C)C)C(=O)N[C@@H](CCCCN)C(=O)N[C@@H](CC(=O)O)C(=O)N[C@@H](CCC(N)=O)C(=O)N[C@H](C(N)=O)C(C)C)C(C)C [S13-SS] (I: Ac-KRIGVRLPGHQKRCAYSLLGLKDQV-NH2 / II: Ac-SCKMQQ-NH2; disulfide I:14-II:2),significant dose-response signal variations,does not reach saturation,–
Ac-GHQKRIAY-NH2 [KRI],not able to bind Ship2-Sam,–,–
Ac-KRIAYKRIAY-NH2 [(KRI)2],not able to bind Ship2-Sam,–,–
Ship2 SAM (from UniProt O15357),–,–,750 nM
